Source: patent US6903052B2, “Nematicidal compositions and methods” (Divergence, Inc., priority 2002, dated 2005)

How the values were obtained:
C. elegans [1] = experiment: Nematicidal activity of fatty acid methyl ester emulsions, spectrum (Example 8); format: cell-based, Caenorhabditis elegans; settings: C. elegans mixed stage
Experimental: (§1) Briefly, the indicated fatty acid emulsions were added and rapidly mixed by swirling. Nematode viability was scored by visual observation and motility assays 24 hours following addition of emulsions (48 hours for plant parasitic nematodes Meloidogyne and Heterodera species). The fatty acid emulsions tested were methyl esters of nonanoic (pelargonic) acid, ricinelaidic acid, ricinoleic acid, vernolic acid, linoleic acid, and oleic acid. […] Results shown are mean % values obtained from multiple independent experiments
(§2) The Caenorhabiditis elegans were mixed stage populations. Similar effects seen on several other free-living nematode species. The Parastrongyloides trichosuri (parasite of Australian bushtail possum) were dauer-like infective 3rd stage larva. Similar effects are also seen against free-living stages. The Meloidogyne incognita and Meloidogyne javanica (root knot nematode) were 2nd stage juveniles (dauer-like infective stage). The Heterodera glycines (soybean cyst nematode) were 2nd stage juveniles (dauer-like infective stage). Finally, the Pratylenchus scribneri (corn lesion nematode) were mixed stage populations.

P. trichosuri = experiment: as above; format: cell-based, Parastrongyloides trichosuri; settings: P. trichosuri infective 3rd stage larva
Experimental: as §1, §2

P. scribneri = experiment: as above; format: cell-based, Pratylenchus scribneri; settings: P. scribneri mixed stage
Experimental: as §1, §2

M. incognita [2] = experiment: as above; format: cell-based, Meloidogyne incognita; settings: M. incognita 2nd stage juveniles, scored at 48 hours
Experimental: as §1, §2

M. javanica [3] = experiment: as above; format: cell-based, Meloidogyne javanica; settings: M. javanica 2nd stage juveniles, scored at 48 hours
Experimental: as §1, §2

C. elegans [4] = experiment: Nematicidal activity of single fatty acid methyl ester emulsions against Caenorhabditis elegans (Example 4); format: cell-based
Experimental: Mixed stage Caenorhabditis elegans were washed off plates seeded with OP50 bacteria using M9 solution. 250 μl of the M9 solution, which contained about 50 worms, was pipetted into each well of a 24-well plate.
(§3) Fatty acid methyl ester emulsions were prepared following the teachings of Kim et al (U.S. Pat. No. 5,698,592). Briefly, 1 ml 1% stock solution emulsions were prepared by mixing 10 μl of fatty acid methyl ester with 20 μl of the surfactant Igepal CO 630 in a 1.5 ml eppendorf tube. After careful mixing of fatty acid and Igepal CO 630, 850 μl of ddH20 was added and mixed by gentle pipetting until a homogeneous solution was obtained. Finally, 120 μl of pure isopropanol was added and mixed by gentle pipetting. This stock solution was then used to produce various fatty acid methyl ester dilution emulsions in 24-well plate assays.
To each well, fatty acid emulsions or control emulsions were added and rapidly mixed by swirling. Nematode viability was scored by visual observation and motility assays at various time points 24 hours following addition of emulsions or controls. The fatty acid emulsions tested were methyl esters of nonanoic (pelargonic) acid, ricinoleic acid, vernolic acid, linoleic acid, oleic acid, and control emulsions lacking fatty acids.

C. elegans [5] = experiment: Nematicidal activity of emulsions made with Tween-20 (replacing Igepal CO 630) against C. elegans; format: cell-based, Caenorhabditis elegans; settings: Tween-20 emulsion
Experimental: Some nematodes assayed as described in Example 9 lacked tolerance to emulsions made with the surfactant Igepal CO 630. For this reason some assays were repeated with Tween-20-based emulsions.
as §3, with “Briefly,” for “Fatty acid methyl ester emulsions were prepared following the teachings of Kim et al (U.S. Pat. No. 5,698,592). Briefly,”, “Tween-20” for “Igepal CO 630”, “Tween-20,” for “Igepal CO 630,”

H. glycines = experiment: Nematicidal activity of fatty acid methyl ester emulsions, spectrum (Example 8); format: cell-based, Heterodera glycines; settings: H. glycines 2nd stage juveniles, scored at 48 hours
Experimental: as §1, §2

C. elegans [6] = experiment: Rescue of C. elegans delta-12 FAT RNAi feeding phenotype by fatty acid methyl esters; format: cell-based, Caenorhabditis elegans; settings: 3 mM added to the NGM media
Text: RNAi by feeding: C. elegans can be grown on lawns of E. coli genetically engineered to produce double stranded RNA (dsRNA) designed to inhibit delta-12 fat-2 expression. Briefly, E. coli were transformed with a genomic fragment of a portion of the C. elegans fat-2 gene sequence, specifically a fragment 651 nucleotides long, containing the entire first exon and terminating just before the conserved intron splice junction between the first exon and first intron. This construct encodes approximately the first 217 amino acids of the C. elegans delta-12 FAT gene. The 651 nucleotide genomic fragment was cloned into an E. coli expression vector between opposing T7 polymerase promoters. The clone was then transformed into a strain of E. coli that carries an IPTG-inducible T7 polymerase. As a control, E. coli was transformed with a gene encoding the Green Fluorescent Protein (GFP). Feeding RNAi was initiated from C. elegans eggs or from C. elegans […]. […] When feeding RNAi was started from C. elegans L4 larvae at 23° C. on NGM plates containing IPTG and E. coli expressing the C. elegans […] […] The sequence of the fat-2 gene is of sufficiently high complexity (i.e., unique) such that the RNAi is not likely to represent cross reactivity with other genes. […]

C. elegans [7] = experiment: Nematicidal activity of emulsions made with cyclodextrins (replacing isopropanol) against C. elegans; format: cell-based, Caenorhabditis elegans; settings: igepal CO 630 / 2-Hydroxypropyl-β-Cyclodextrin emulsion
Text: In an effort to increase the bioavailability of fatty acid methyl esters in emulsions, isopropanol was replaced with one of two cyclodextrins (Methyl-β-Cyclodextrin or 2-Hydroxypropyl-β-Cyclodextrin).

B. malayi = experiment: Nematicidal activity of tween-based emulsions against microfilarial nematodes; format: cell-based, Brugia malayi
Experimental: To each well, tween-based fatty acid emulsions were added and rapidly mixed by swirling. Nematode microfilaria viability was scored by visual observation of motility at 24 and 48 hours following addition of emulsions. The fatty acid emulsions tested were methyl esters of ricinoleic acid, vernolic acid, ricinelaidic acid, oleic acid, and control emulsions lacking fatty acids. The results of this study are presented in Table 7 as the percentage of non-motile microfilaria 24 hours after inoculation and in Table 8 as the percentage of non-motile microfilaria 48 hours after inoculation

M. javanica [8] = experiment: Nematicidal activity of fatty acid methyl ester emulsions against root knot nematode J2 larvae (Example 6); format: cell-based, Meloidogyne javanica; settings: 0.1% emulsion; 48 hours incubation, counted about 24 hours after transfer to plates
Experimental: as §3
(§4) Meloidogyne incognita and javanica were prepared from tomato roots. The roots were bleached and the debris was separated from the J2 larvae and eggs by filtration followed by sucrose density gradient centrifugation. Eggs were hatched over 4 days at 15° C. and the J2 larvae were collected by passage though a filter, followed by centrifugation.
(§5) Nematodes and emulsions were incubated with shaking at room temperature for 48 hours. The contents of each well were transferred to a small spot on individual NGM plates lacking bacteria. About 24 hours after the transfer to plates, worms on and off the inoculation spot were counted as not viable or viable, respectively. Worms were considered viable if they had crawled away from the inoculation spot, or if they were moving. Worms were considered non-viable if they remained at the inoculation spot.

M. incognita [9] = experiment: as above; format: cell-based, Meloidogyne incognita; settings: 0.1% emulsion; 48 hours incubation, counted about 24 hours after transfer to plates
Experimental: as §3, §4, §5

tomato seedlings = experiment: Phytotoxicity evaluation on tomato seedlings; format: in vivo; settings: 250 μl of 1% emulsion applied to stem-media interface of two-week seedlings
Experimental: Sterilized tomato seeds were germinated in magenta jars containing Gamborg's agar media. After two weeks of growth, seedlings were treated with 250 μl of 1% fatty acid methyl ester emulsion (nonanoic acid, ricinoleic acid, ricinelaidic acid, oleic acid, or a control emulsion lacking any fatty acid), applied directly to the stem-media interface. Tomato seedlings were scored at various times after application of emulsions.

[10] = tested on: everted hamster jejunal and ileal segments; settings: Gaginella et al. (1975); cited from earlier work
[11] = tested on: isolated intestinal epithelial cells; settings: Gaginella et al. (1977); cited from earlier work

| SMILES | % Worm Death (24 hr) (C. elegans [1]; 0.01% solution) | % Worm Death (24 hr) (C. elegans [1]; 0.1% solution) | % Worm Death (24 hr) (P. trichosuri; 0.01% solution) | % Worm Death (24 hr) (P. trichosuri; 0.1% solution) | % Worm Death (24 hr) (P. scribneri; 0.01% solution) | % Worm Death (24 hr) (P. scribneri; 0.1% solution) | Percentage of Worm Death (C. elegans [4]; 0.003% emulsion, 1 hr) | Percentage of Worm Death (C. elegans [4]; 0.003% emulsion, 6 hr) | Percentage of Worm Death (C. elegans [4]; 0.003% emulsion, 24 hr) | Percentage of Worm Death (C. elegans [4]; 0.1% emulsion, 1 hr) | Percentage of Worm Death (C. elegans [4]; 0.1% emulsion, 6 hr) | Percentage of Worm Death (C. elegans [4]; 0.1% emulsion, 24 hr) | % Worm Death (24 hr) (H. glycines; 0.001% solution) | % Worm Death (24 hr) (H. glycines; 0.01% solution) | % Worm Death (24 hr) (H. glycines; 0.1% solution) | Rescue of the delta-12 FAT RNAi feeding phenotype (C. elegans [6]) | also measured |
| --- | --- | --- | --- | --- | --- | --- | --- | --- | --- | --- | --- | --- | --- | --- | --- | --- | --- |
| CCCCC/C=C\C/C=C\CCCCCCCC(=O)OC [Linoleic Acid (C18-methyl ester), linoleic acid methyl ester, reference compound] | <10% | <10% | ˜25% | ˜25% | <20% | <20% | 0-5% | 0-5% | 0-5% | 0-5% | 0-5% | 0-5% | <20% | <20% | <20% | partial rescue | % Worm Death (24 hr) (C. elegans [1]; 0.001% solution): <10%; % Worm Death (24 hr) (M. incognita [2]; 0.01% solution): 20%; % Worm Death (24 hr) (M. incognita [2]; 0.1% solution): 20%; % Worm Death (48 hr) (M. javanica [3]; 0.01% solution): 0-5%; % Worm Death (48 hr) (M. javanica [3]; 0.1% solution): 20%; % Worm Death (24 hr) (C. elegans [5]; 0.01% solution): <10%; % Worm Death (24 hr) (C. elegans [5]; 0.1% solution): <10%; % Worm Death (24 hr) (C. elegans [7]; 0.01% solution): <10%; % Worm Death (24 hr) (C. elegans [7]; 0.1% solution): <10% |
| CCCCCCCC/C=C\CCCCCCCC(=O)OC [Oleic Acid (C18-methyl ester), oleic acid methyl ester, reference compound] | <10% | <10% | ˜10% | ˜10% | <20% | <20% | 0-5% | 0-5% | 0-5% | 0-5% | 0-5% | 0-5% | <10% | <10% | <10% | does not rescue | percentage of non-motile microfilaria (B. malayi; 24 hrs post-inoculation, 0.0008%): 0%; percentage of non-motile microfilaria (B. malayi; 24 hrs post-inoculation, 0.0016%): 0%; percentage of non-motile microfilaria (B. malayi; 24 hrs post-inoculation, 0.003%): 0%; percentage of non-motile microfilaria (B. malayi; 24 hrs post-inoculation, 0.005%): 0%; percentage of non-motile microfilaria (B. malayi; 24 hrs post-inoculation, 0.0067%): 0%; percentage of non-motile microfilaria (B. malayi; 24 hrs post-inoculation, 0.008%): 0%; percentage of non-motile microfilaria (B. malayi; 48 hrs post-inoculation, 0.0008%): 0%; percentage of non-motile microfilaria (B. malayi; 48 hrs post-inoculation, 0.0016%): 0%; percentage of non-motile microfilaria (B. malayi; 48 hrs post-inoculation, 0.003%): 0%; percentage of non-motile microfilaria (B. malayi; 48 hrs post-inoculation, 0.005%): 0%; percentage of non-motile microfilaria (B. malayi; 48 hrs post-inoculation, 0.0067%): 0%; percentage of non-motile microfilaria (B. malayi; 48 hrs post-inoculation, 0.008%): 0%; M. javanica (% not viable) (M. javanica [8]): 20%; M. incognita (% not viable) (M. incognita [9]): 25%; Visible effects on tomato seedlings (tomato seedlings): none of the tomatoes treated with the other fatty acid methyl ester emulsions showed visible effects |
| CCCCCC[C@@H](O)C/C=C\CCCCCCCC(=O)O [Ricinoleic acid, reference compound] | – | – | – | – | – | – | – | – | – | – | – | – | – | – | – | – | Effect on water (and electrolyte) absorption [10]: inhibitory effect on water and electrolyte absorption; Cytotoxicity [11]: cytotoxic |
